SMILES strings stand for the structures.

In patent US20240246918A1, “COMPOUNDS AND COMPOSITIONS AS EIF4E INHIBITORS AND THE USES THEREOF” (Ribometrix, Inc., priority 2022, published 2024) one finds IC50 data, which are given here for 34 compounds.

In experiment [1] the test system is COLO 205 colorectal tumor cells. The experiment is described as follows: Tumor cell viability inhibition assay (CellTiter-Glo 2.0, 72 hours). Type of experiment: cell-based. As to conditions: COLO 205 cell viability. The procedure, abridged:
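IC50 derived by 4-parameter fitting after normalizing luminescence to DMSO and max-inhibition wells. Compounds tested as 11 concentrations in 4-fold steps on COLO 205 cells seeded at 1500 per well in RPMI-1640/10% FBS; ATP content measured with CellTiter-Glo 2.0 after 72 h.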
A general note: Cellular ATP, detected with luciferase, serves as a proxy for viable cell number.

In a further experiment the target is T1, human eIF4E protein (Homo sapiens, UniProt P06730).
T1 construct: purchased Novus NBP-45314
T1 sequence (P06730 whole entry): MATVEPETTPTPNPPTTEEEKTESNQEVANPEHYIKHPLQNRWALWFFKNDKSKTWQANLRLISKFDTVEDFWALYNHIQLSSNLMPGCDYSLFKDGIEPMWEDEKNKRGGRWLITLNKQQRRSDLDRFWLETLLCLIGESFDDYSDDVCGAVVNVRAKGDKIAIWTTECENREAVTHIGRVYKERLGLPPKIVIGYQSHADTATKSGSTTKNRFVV
The experiment is described as follows: Biochemical competitive binding assay (TR-FRET competition, EDA-m7GDP-ATTO-647N probe). As to conditions: read-out: hEIF4E TR-FRET IC50. The procedure, abridged: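 IC50 values come from 4-parameter fits of the normalized 665/620 nm TR-FRET ratio. Compound was first incubated 15 min with 4 nM recombinant His-eIF4E bound to 2.5 nM Eu-anti-His antibody, then 15 min with 5 nM m7GDP-ATTO-647N tracer, in pH 7.5 HEPES buffer with 100 mM KCl, Tween-20 and BSA.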
Background: TR-FRET usually uses a lanthanide donor and a delayed reading to cut background.

With `Cc1nc2c(c(=O)n1CCOc1ccc(Cl)cc1-c1ccnc(CC(=O)O)c1)CC(N(C)CC1CC(F)(F)C1)CC2` (centres unmarked) [Compound 118], the IC50 (in general, the concentration that gives 50% inhibition) in experiment [1] (Homo sapiens, COLO 205, 72 h) is over 20 µM; at human eIF4E protein, 0.5 to 5 µM.
Taken in the same sequence, the figures for `Cc1cc(-c2cc(Cl)ccc2OCCn2c(C)nc3c(c2=O)CC(N2CCC(c4cccs4)CC2)CC3)c2scc(C(=O)O)c2n1` (centres unmarked) [Compound 130] were under 5 µM and under 0.1 µM.
Turning to `Cc1cc(-c2cc(Cl)ccc2OCCn2c(C)nc3c(c2=O)CC(N2CC4(CCCNC4)C2)CC3)c2scc(C(=O)O)c2n1` (single isomer, unassigned) [Compound 509], the IC50 in experiment [1] (Homo sapiens, COLO 205, 72 h) is over 20 µM; at human eIF4E protein, under 0.1 µM.
Regarding `COC1CCN(C2CCc3nc(C)n(CC#Cc4ccc(Cl)cc4-c4ccnc5c(C(=O)O)csc45)c(=O)c3C2)CC1` (single isomer, unassigned) [Compound 410], the figures for the IC50 (in experiment [1]; on human eIF4E protein) were 5 to 20 µM and under 0.1 µM, respectively.
For `CO[C@@H]1CCN([C@@H]2CCc3nc(C)n(CCOc4ccc(Cl)cc4-c4cc(C)nc5c(C(=O)O)csc45)c(=O)c3C2)CC1(C)C` (single isomer, unassigned) [Compound 376], the IC50 in experiment [1] (Homo sapiens, COLO 205, 72 h) was under 5 µM; at human eIF4E protein, under 0.1 µM.
On to `Cc1cc(-c2cc(Cl)ccc2OCCn2c(C)nc3c(c2=O)C(C)(C)C(N)CC3)c2scc(C(=O)O)c2n1` (centres unmarked) [Compound 123, 7-(2-(2-(6-amino-2,5,5-trimethyl-4-oxo-5,6,7,8-tetrahydroquinazolin-3(4H)-yl)ethoxy)-5-chlorophenyl)-5-methylthieno[3,2-b]pyridine-3-carboxylic acid], for which the half-maximal inhibitory concentration (IC50) is over 20 µM in experiment [1] (Homo sapiens, COLO 205, 72 h) and 0.5 to 5 µM on human eIF4E protein.
For `Cc1cc(-c2cc(Cl)ccc2OCCn2c(C)nc3c(c2=O)C[C@@H](N2C[C@@H]4CC(F)(F)C[C@@H]4C2)CC3)c2scc(C(=O)NS(C)(=O)=O)c2n1` (relative stereo) [Compound 369], in that order: under 5 µM and under 0.1 µM.
For `Cc1cc(-c2cc(Cl)ccc2OCCn2c(C)nc3c(c2=O)CC(N2CCC4(CC2)CN(CC(F)(F)F)CCO4)CC3)c2scc(C(=O)O)c2n1` (single isomer, unassigned) [Compound 517], the IC50 in experiment [1] (Homo sapiens, COLO 205, 72 h) was under 5 µM; on human eIF4E protein, under 0.1 µM.
Take `Cc1nc2c(c(=O)n1CC#Cc1ccc(Cl)cc1-c1ccnc3c(C(=O)NS(C)(=O)=O)csc13)CC(N1CCC(OC(F)(F)F)CC1)CC2` (single isomer, unassigned) [Compound 592]: the concentration for half-maximal inhibition (IC50) was under 5 µM in experiment [1] (Homo sapiens, COLO 205, 72 h) and under 0.1 µM at human eIF4E protein.
As to `Cc1cc(-c2cc(Cl)ccc2OCCn2c(C)nc3c(c2=O)CC(N2CCC(C(F)(F)F)CC2)CC3)c2scc(C(=O)NS(C)(=O)=O)c2n1` (single isomer, unassigned) [Compound 433], the IC50 in experiment [1] is under 5 µM; at human eIF4E protein, under 0.1 µM.
In the case of `Cc1cc(-c2cc(Cl)ccc2OCCn2c(C)nc3c(c2=O)C[C@@H](N2CCC[C@@H](C(F)(F)F)C2)CC3)c2scc(C(=O)O)c2n1` (single isomer, unassigned) [Compound 383], the IC50 in experiment [1] (Homo sapiens, COLO 205, 72 h) was 5 to 20 µM; on human eIF4E protein it was under 0.1 µM.
Take `Cc1cc(-c2cc(Cl)ccc2OCCn2c(C)nc3c(c2=O)C[C@@H](N2CC[C@@H](OC(F)(F)F)C(F)(F)C2)CC3)c2scc(C(=O)O)c2n1` (single isomer, unassigned) [Compound 405]: the IC50 in experiment [1] (Homo sapiens, COLO 205, 72 h) is 5 to 20 µM; at human eIF4E protein, under 0.1 µM.
For the compound `Cc1cc(-c2cc(Cl)ccc2OCCn2c(C)nc3c(c2=O)C[C@H](N2CCC[C@H](c4ncccc4F)C2)CC3)c2scc(C(=O)O)c2n1` (single isomer, unassigned) [Compound 464], the IC50 in experiment [1] (Homo sapiens, COLO 205, 72 h) was under 5 µM; at human eIF4E protein, under 0.1 µM.
Taken in the same sequence, the figures for `Cc1cc(-c2cc(Cl)ccc2OCCn2c(C)nc3c(c2=O)C[C@@H](N2CCC4(CC2)CC(F)(F)CO4)CC3)c2scc(C(=O)O)c2n1` (single isomer, unassigned) [Compound 490] were under 5 µM and under 0.1 µM.
For `Cc1cc(-c2cc(Cl)ccc2OCCn2c(C)nc3c(c2=O)C[C@H](N2CCC[C@@H](C(F)(F)F)C2)CC3)c2scc(C(=O)O)c2n1` (single isomer, unassigned) [Compound 382], in that order: under 5 µM and under 0.1 µM.
Turning to `Cc1cc(-c2cc(Cl)ccc2OCCn2c(C)nc3c(c2=O)CC(N2CCC(OC(F)(F)F)CC2)CC32CC2)c2scc(C(=O)O)c2n1` (single isomer, unassigned) [Compound 380, 7-(5-chloro-2-(2-(2′-methyl-4′-oxo-6′-(4-(trifluoromethoxy)piperidin-1-yl)-6′,7′-dihydro-4′H-spiro[cyclopropane-1,8′-quinazolin]-3′(5′H)-yl)ethoxy)phenyl)-5-methylthieno[3,2-b]pyridine-3-carboxylic acid], the concentration for half-maximal inhibition (IC50) in experiment [1] was under 5 µM; at human eIF4E protein, under 0.1 µM.
Regarding `Cc1cc(-c2cc(Cl)ccc2OCCn2c(C)nc3c(c2=O)C[C@@H](N(C)CC2CC(F)(F)C2)CC32CC2)c2scc(C(=O)O)c2n1` (single isomer, unassigned) [Compound 569], the IC50 in experiment [1] (Homo sapiens, COLO 205, 72 h) was under 5 µM; at human eIF4E protein it was under 0.1 µM.
Take `Cc1cc(-c2cc(Cl)ccc2OCCn2c(C)nc3c(c2=O)CC(N2CC(F)(F)C(F)(F)C2)CC3)c2scc(C(=O)O)c2n1` (centres unmarked) [Compound 119]: the IC50 in experiment [1] (Homo sapiens, COLO 205, 72 h) was 5 to 20 µM; on human eIF4E protein it was under 0.1 µM.
As to `Cc1cc(-c2cc(Cl)ccc2OCCn2c(C)nc3c(c2=O)C[C@H](N2CCC(c4nccs4)CC2)CC3)c2scc(C(=O)O)c2n1` (single isomer, unassigned) [Compound 475], the IC50 in experiment [1] (Homo sapiens, COLO 205, 72 h) was under 5 µM; at human eIF4E protein, under 0.1 µM.
As to `Cc1cc(-c2cc(Cl)ccc2OCCn2c(C)nc3c(c2=O)C[C@H](N2CCC[C@@H](c4ncccc4F)C2)CC3)c2scc(C(=O)O)c2n1` (single isomer, unassigned) [Compound 465], the IC50 in experiment [1] (Homo sapiens, COLO 205, 72 h) is under 5 µM; at human eIF4E protein, under 0.1 µM.
For the compound `Cc1cc(-c2cc(Cl)ccc2OCCn2c(C)nc3c(c2=O)C[C@](C)(N2CCC[C@]4(C2)CC4(F)F)CC3)c2scc(C(=O)O)c2n1` (single isomer, unassigned) [Compound 553], the IC50 in experiment [1] (Homo sapiens, COLO 205, 72 h) is under 5 µM; on human eIF4E protein, under 0.1 µM.
For the compound `Cc1cc(-c2cc(Cl)ccc2OCCn2c(C)nc3c(c2=O)C[C@H](N2CCCCC(F)(F)C2)CC3)c2scc(C(=O)O)c2n1` (single isomer, unassigned) [Compound 469], the IC50 was under 5 µM in experiment [1] (Homo sapiens, COLO 205, 72 h) and under 0.1 µM at human eIF4E protein.
As to `Cc1cc(-c2cc(Cl)ccc2OCCn2c(C)nc3c(c2=O)CC(C)(N(C)CC2CC(F)(F)C2)CC3)c2scc(C(=O)O)c2n1` (single isomer, unassigned) [Compound 600], the figures for the IC50 (in experiment [1]; on human eIF4E protein) were under 5 µM and under 0.1 µM, respectively.
For `Cc1cc(-c2cc(Cl)ccc2C#CCn2c(C)nc3c(c2=O)CC(C)(N2CCCC4(C2)CC4(F)F)CC3)c2scc(C(=O)O)c2n1` (single isomer, unassigned) [Compound 615], in that order: over 20 µM and 0.1 to 0.5 µM.
As to `COc1cc(C2CCN([C@H]3CCc4nc(C)n(CCOc5ccc(Cl)cc5-c5cc(C)nc6c(C(=O)O)csc56)c(=O)c4C3)CC2)ccn1` (single isomer, unassigned) [Compound 576], the concentration for half-maximal inhibition (IC50) in experiment [1] (Homo sapiens, COLO 205, 72 h) is under 5 µM; on human eIF4E protein it was under 0.1 µM.
Taken in the same sequence, the figures for `Cc1cc(-c2cc(Cl)ccc2OCCn2c(C)nc3c(c2=O)C[C@H](N2CCC[C@]4(C2)CC4(F)F)CC32CC2)c2scc(C(=O)O)c2n1` (single isomer, unassigned) [Compound 581] were under 5 µM and under 0.1 µM.
Taken in the same sequence, the figures for `Cc1cc(-c2cc(Cl)ccc2OCCn2c(C)nc3c(c2=O)C[C@@H](N2CC[C@@H](C(F)F)C2)CC3)c2scc(C(=O)O)c2n1` (single isomer, unassigned) [Compound 120] were under 5 µM and under 0.1 µM.
`Cc1cc(-c2cc(Cl)ccc2OCCn2c(C)nc3c(c2=O)C[C@@H](N2CCC[C@H](C(F)F)C2)CC3)c2scc(C(=O)O)c2n1` (single isomer, unassigned) [Compound 101]: the IC50 in experiment [1] (Homo sapiens, COLO 205, 72 h) is under 5 µM; at human eIF4E protein, under 0.1 µM.
For `CO[C@H](C1CCN([C@@H]2CCc3nc(C)n(CCOc4ccc(Cl)cc4-c4cc(C)nc5c(C(=O)O)csc45)c(=O)c3C2)CC1)C(F)(F)F` (single isomer, unassigned) [Compound 552], in that order: under 5 µM and under 0.1 µM.
For `Cc1cc(-c2cc(Cl)ccc2OCCn2c(C)nc3c(c2=O)CC(N2CCc4nc[nH]c4C2)CC3)c2scc(C(=O)O)c2n1` (centres unmarked) [Compound 155], in that order: over 20 µM and under 0.1 µM.
As to `CO[C@H]1CCN([C@H]2CCc3nc(C)n(CCOc4ccc(Cl)cc4-c4cc(C)nc5c(C(=O)O)csc45)c(=O)c3C2)CC1(C)C` (single isomer, unassigned) [Compound 378], the IC50 in experiment [1] (Homo sapiens, COLO 205, 72 h) was under 5 µM; on human eIF4E protein it was under 0.1 µM.
For `COC1(C(F)(F)F)CCN([C@H]2CCc3nc(C)n(CCOc4ccc(Cl)cc4-c4cc(C)nc5c(C(=O)O)csc45)c(=O)c3C2)CC1` (single isomer, unassigned) [Compound 451], the half-inhibitory concentration (IC50) in experiment [1] (Homo sapiens, COLO 205, 72 h) was under 5 µM; at human eIF4E protein, under 0.1 µM.
In the case of `Cc1cc(-c2cc(Cl)ccc2OCCn2c(C)nc3c(c2=O)CC(N(C)C24CC5CC(CC(C5)C2)C4)CC3)c2scc(C(=O)O)c2n1` (single isomer, unassigned) [Compound 468], the IC50 in experiment [1] (Homo sapiens, COLO 205, 72 h) was under 5 µM; on human eIF4E protein, under 0.1 µM.
For `CO[C@@H]1CCN([C@H]2CCc3nc(C)n(CCOc4ccc(Cl)cc4-c4cc(C)nc5c(C(=O)O)csc45)c(=O)c3C2)CC12CC2` (single isomer, unassigned) [Compound 521], in that order: 5 to 20 µM and under 0.1 µM.
